From patent US9278069B2, “Nanoclusters compositions and methods” (UNIVERSITY OF KANSAS, priority 2005, dated 2016)

How the values were obtained:
[1] = Dispersion stability of budesonide in model propellant HPFP; type: physicochemical; settings: dispersed in HPFP
Description: A trial run for determining the feasibility of budesonide nanoclusters as Metered Dose Inhaler formulations was performed. Budesonide nanoclusters and pure budesonide (milled) were dispersed in model propellant HPFP (2H, 3H perfluoropentane) and their dispersion stability was analyzed. HPFP has similar physico-chemical properties to MDI propellants such as […]. Previous literature studies indicate that dispersion stability of therapeutic molecules is similar in both HPFP and HFA227ea.

[2] = Solubility; type: physicochemical
[3] = almost all organic solvent; cited from earlier work
[4] = Dissolution of insulin particles in PBS (pH 7.4); type: physicochemical; settings: PBS pH 7.4, 37 °C, FIG. 38
Description: Approximately 6 mg of each insulin particle sample was suspended in PBS (pH 7.4). The solution was placed in a 100,000 Dalton biotech grade cellulose ester dialysis tube (Spectrum Labs, Rancho Dominiguez, Calif.) and placed in PBS solution to a final volume of 45 mL. All samples were incubated at 37° C. and shaken at 50 rpm on a shaker table. 1 mL aliquots were taken at various time points up to 8 hours from the bulk solution and replaced with 1 mL of fresh PBS. The insulin concentration was measured using a Coomassie Plus colorimetric protein quantification assay (Thermo Fisher Scientific, Waltham, Mass.). A calibration curve was used to correlate the insulin concentration with the measured absorbance, with insulin concentrations ranging between 1 and 25 μg/mL used as the standard. Dissolved mass was calculated from the measured concentration, and was then normalized to the total loaded mass to determine the percent dissolved. All experiments were performed in triplicate. Analysis of variance (ANOVA) was used to determine statistically significant differences between groups (p<0.05). Comparisons among groups were done using a Fisher's F-test.

[5] = Aerodynamic diameter by time-of-flight measurement (Aerosizer LD); type: physicochemical; settings: insulin powders
Description: The aerodynamic size distributions of the agglomerate powders were measured directly from lyophilized powder by time-of-flight measurement using an Aerosizer LD (Amherst Instruments) equipped with a […] aperture operating at 6 psi.
The particle size of the dispersed nanoparticle agglomerates as well as the resuspended lyophilized powder was measured using a Coulter Multisizer 3. The aerodynamic size distributions of the agglomerate powders were measured directly from lyophilized powder by time-of-flight measurement using an Aerosizer LD (Amherst Instruments) equipped with a 700 μm aperture operating at 6 psi.
The aerodynamic diameters of the lyophilized powders were determined using an Aerosizer LD (Amherst Process Instruments Inc.). Data were collected over ˜70 seconds under high shear force (˜3.4 kPa) using a 700 μm nozzle.
The particle size was determined from the lyophilized powder using particle time-of-flight analysis. The particle mass mean aerodynamic diameter indentified using this analytical method was 1.0±0.1 μm, which is an ideal particle size for accessing the lung periphery.
Aerodynamic size distribution of the lyophilized powder was obtained by analyzing the time of flight measurements from an Aerosizer LD (Amherst Instruments) equipped with a 700 μm and operating 4 psi. […]

[6] = Cascade impaction of diatrizoic acid dry powder and nebulized suspension; type: physicochemical; settings: flow rate ~30 L/min
Description: FDA requires characterization of aerosols using cascade impaction, which determines aerosol particle size; indicative of the probable deposition site in the lung. The nanoparticle agglomerate formulation described above was studied using a Tisch Ambient Cascade Impactor. The study was carried out by applying ˜20 mg powder manually into the orifice of the instrument at an air flow rate of […]. Alternatively, the dry powders were suspended in water and applied into the cascade impactor through a nebulizer equipped with an LC Star atomizer. […] Cut-off particle aerodynamic diameters at 30 L/min for each stage of the impactor were: pre-separator (10.00 μm), stage 0 (9.00 μm), stage 1 (5.8 μm), stage 2 (4.7 μm), stage 3 (3.3 μm), stage 4 (2.1 μm), stage 5 (1.1 μm), stage 6 (0.7 μm), stage 7 (0.4 μm) and filter (0 μm). Diatrizoic acid nanoparticle agglomerates deposited on each stage of the impactor were determined by measuring the difference in weight of filters placed on the stages. The percent emitted fraction (% EF) and fine particle fractions of the total dose (FPFTD) were then calculated. In addition, the mass median aerodynamic diameter, MMAD, and geometric standard deviation, GSD, were obtained by a linear fit of the cumulative percent less-than the particle size range by weight plotted on a probability scale as a function of the logarithm of the effective cut-off diameter.

[7] = Cascade impaction of paclitaxel nanoparticle agglomerates (Tisch Ambient Cascade Impactor); type: physicochemical
Description: Aerodynamic characteristics of selected nanoparticle agglomerates were studied in vitro using a Tisch Ambient Cascade Impactor (Tisch Environmental, Inc., Ohio). The study was carried out by applying ˜20 mg powder manually into the orifice of the instrument at an air flow rate of ˜30 L/min. Cut-off particle aerodynamic diameters for each stage of the impactor were: pre-separator ([…]), stage 0 ([…]), stage 1 (5.8 mm), stage 2 (4.7 mm), stage 3 (3.3 mm), stage 4 (2.1 mm), stage 5 (1.1 mm), stage 6 (0.7 mm), stage 7 (0.4 mm) and filter (0 mm). Nanoparticle agglomerates deposited on each stage of the impactor were determined by measuring the difference in weight of filters placed on the stages. The mass median aerodynamic diameter, MMAD, and geometric standard deviation, GSD, were obtained by a linear fit of the cumulative percent less-than the particle size range by weight plotted on a probability scale as a function of the logarithm of the effective cut-off diameter.

[8] = system: A549 cells; assay: Cytotoxicity of budesonide formulations, CellTiter 96 MTS assay; type: cell-based; settings: up to 5 mg/mL, end of 12 hours
Description: In this experiment, 8×10^4 A549 cells/well were seeded in 96-well microtiter plates. At the end of the incubation period (12 h), […] of MTS reagent solution was added to each well and incubated for 3 hours at 37° C. The absorbance was measured at 490 nm using a microtiter plate reader (SpectraMax, M25, Molecular Devices Corp., CA). The percentage of viable cells with all tested concentrations was calculated relative to untreated cells.

CCCC1O[C@@H]2C[C@H]3[C@@H]4CCC5=CC(=O)C=C[C@]5(C)[C@H]4[C@@H](O)C[C@]3(C)[C@]2(C(=O)CO)O1 (some centres unmarked) [milled budesonide, Budesonide]
dispersion stability (creaming) [1]: clearly visible layer was seen at 1 hr | dispersion stability (creaming) ([1]; listed as jet milled budesonide): complete creaming

[H]/N=C(/N)N[C@H]1[C@H](O)[C@@H](O)[C@H](O[C@@H]2O[C@@H](C)[C@](O)(C=O)[C@H]2O[C@@H]2O[C@@H](CO)[C@H](O)[C@@H](O)[C@@H]2NC)[C@@H](N/C(N)=N\[H])[C@@H]1O [streptomycin, Streptomycin]
solubility in acetone and ethanol [2]: poorly soluble | solubility in water [2]: freely water soluble

CO[C@H]1/C=C/O[C@@]2(C)Oc3c(C)c(O)c4c(O)c(c(/C=N/N5CCN(C)CC5)c(O)c4c3C2=O)NC(=O)/C(C)=C\C=C\[C@H](C)[C@H](O)[C@@H](C)[C@@H](O)[C@@H](C)[C@H](OC(C)=O)[C@@H]1C [Rifampicin]
solubility in organic solvent [3]: freely soluble

Unprocessed: Lyophilized insulin powder from bovine pancreas (0.5% zinc content)
insulin dissolution behaviour [4]: follows Higuchi dissolution kinetics | daero [5]: 4.117 ± 1.852 μm

CC(=O)Nc1c(I)c(NC(C)=O)c(I)c(C(=O)O)c1I [Diatrizoic acid (powder), Diatrizoic acid]
% EF (percent emitted fraction) [6]: 70 ± 1% | % FPF (fine particle fraction) <3.3 [6]: 4 ± 2^ % | % FPF (fine particle fraction) <5.7 [6]: 21 ± 2% | GSD (geometric standard deviation) [6]: 2 ± 0.1 | MMAD (mass median aerodynamic diameter obtained from cascade impactor) [6]: 9 ± 0.1

CC(=O)O[C@H]1C(=O)[C@@]2(C)[C@H]([C@H](OC(=O)c3ccccc3)[C@]3(O)C[C@H](OC(=O)[C@H](O)[C@@H](NC(=O)c4ccccc4)c4ccccc4)C(C)=C1C3(C)C)[C@]1(OC(C)=O)CO[C@@H]1C[C@@H]2O [Pure paclitaxel powder, Paclitaxel]
GSD (geometric standard deviation) ([7]; cascade impactor, ~30 L/min): 2.2 ± 0.03 | MMAD (mass median aerodynamic diameter) ([7]; cascade impactor, ~30 L/min): 0.08 ± 0.02 | % RF (percent respirable fraction) <3.3 ([7]; flow rate ~30 L/min): 0% | % RF (percent respirable fraction) <5.7 ([7]; flow rate ~30 L/min): 0.39 ± 0.3% | % EF (percent emitted fraction) ([7]; lyophilized NA, flow rate ~30 L/min): 68.3 ± 6.1%

CCCC1O[C@@H]2C[C@H]3[C@@H]4CCC5=CC(=O)C=C[C@]5(C)[C@H]4[C@@H](O)C[C@]3(C)[C@]2(C(=O)CO)O1 (some centres unmarked) [Stock budesonide, Budesonide]
cytotoxicity [8]: did not show any significant cytotoxicity

CC(=O)Nc1c(I)c(NC(C)=O)c(I)c(C(=O)O)c1I [Diatrizoic acid (suspen.), Diatrizoic acid]
% EF (percent emitted fraction) [6]: 75 ± 5% | % FPF (fine particle fraction) <3.3 [6]: 10 ± 7% | % FPF (fine particle fraction) <5.7 [6]: 33 ± 6% | GSD (geometric standard deviation) [6]: 2 ± 0.1 | MMAD (mass median aerodynamic diameter obtained from cascade impactor) [6]: 7 ± 1
